# Measured values as given in PubChem BioAssay AID1963422 (Molecular Pharmacology Branch, DTP, NCI, 2024).
# Test system: 463943-066-T-J2-PDC complex spheroid growth
# Experiment: Anticancer human tumor 463943-066-T-J2-PDC patient-derived colon adenocarcinoma cell line growth inhibition [Asc]
# Details: for IC50: curve of first compound; for viability, T/C: stronger effect = lower value
# In short: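 Complex spheroids combining tumor cells with HUVEC endothelial cells and human MSCs, at 37 degrees C, 5% CO2; agents tested alone or combined, half-log dilutions from at or near clinical Cmax, or 10 microM if Cmax unknown.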
# [1] = second compound 0.0316 µM, first compound 0.0316 µM
# [2] = second compound 0.0316 µM, first compound 0.1 µM
# [3] = second compound 0.0316 µM, first compound 0.316 µM
# [4] = second compound 0.0316 µM, first compound 1 µM
# [5] = second compound 0.1 µM, first compound 0.0316 µM
# [6] = second compound 0.1 µM, first compound 0.1 µM
# [7] = second compound 0.1 µM, first compound 0.316 µM
# [8] = second compound 0.1 µM, first compound 1 µM
# [9] = second compound 0.316 µM, first compound 0.0316 µM
# [10] = second compound 0.316 µM, first compound 0.1 µM
# [11] = second compound 0.316 µM, first compound 0.316 µM
# [12] = second compound 0.316 µM, first compound 1 µM
# [13] = second compound 1 µM, first compound 0.0316 µM
# [14] = second compound 1 µM, first compound 0.1 µM
# [15] = second compound 1 µM, first compound 0.316 µM
# [16] = second compound 1 µM, first compound 1 µM
# [17] = second compound 3.16 µM, first compound 0.0316 µM
# [18] = second compound 3.16 µM, first compound 0.1 µM
# [19] = second compound 3.16 µM, first compound 0.316 µM
# [20] = second compound 3.16 µM, first compound 1 µM
# [21] = second compound 10 µM, first compound 0.0316 µM
# [22] = second compound 10 µM, first compound 0.1 µM
# [23] = second compound 10 µM, first compound 0.316 µM
# [24] = second compound 10 µM, first compound 1 µM
# 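Further: compound exposure lasted 7 days.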
# 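Wherever viability, T/C is given: 100% = DMSO vehicle control wells.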
smiles,measurement,setting,value
O=C(c1cc(Cc2n[nH]c(=O)c3ccccc23)ccc1F)N1CCN(C(=O)C2CC2)CC1 + Cc1c(S(C)(=O)=O)c(-c2cc(F)cc(N3CCN(c4ccc(NS(=O)(=O)c5ccc(NC(CCN6CCC(C(=O)OCCCP(=O)(O)O)CC6)CSc6ccccc6)c(S(=O)(=O)C(F)(F)F)c5)cc4)CC3)c2)c(-c2ccc(Cl)cc2)n1C(C)C,IC50,second compound 0.0316 µM,> 10000 nM
same,IC50,second compound 0.1 µM,> 10000 nM
same,IC50,second compound 0.316 µM,> 10000 nM
same,IC50,second compound 1 µM,> 10000 nM
same,IC50,second compound 3.16 µM,> 10000 nM
same,IC50,second compound 10 µM,1160 nM
same,"viability, T/C",[1],95.1%
same,"viability, T/C",[2],90%
same,"viability, T/C",[3],93%
same,"viability, T/C",[4],97.3%
same,"viability, T/C","second compound 0.0316 µM, first compound 3.16 µM",93.3%
same,"viability, T/C","second compound 0.0316 µM, first compound 10 µM",86.9%
same,"viability, T/C",[5],98.3%
same,"viability, T/C",[6],86.5%
same,"viability, T/C",[7],94.1%
same,"viability, T/C",[8],91.5%
same,"viability, T/C","second compound 0.1 µM, first compound 3.16 µM",94.6%
same,"viability, T/C","second compound 0.1 µM, first compound 10 µM",81.7%
same,"viability, T/C",[9],91.5%
same,"viability, T/C",[10],90.3%
same,"viability, T/C",[11],87.2%
same,"viability, T/C",[12],85.8%
same,"viability, T/C","second compound 0.316 µM, first compound 3.16 µM",88.7%
same,"viability, T/C","second compound 0.316 µM, first compound 10 µM",77.1%
same,"viability, T/C",[13],79.4%
same,"viability, T/C",[14],76.2%
same,"viability, T/C",[15],81.4%
same,"viability, T/C",[16],79.3%
same,"viability, T/C","second compound 1 µM, first compound 3.16 µM",73.3%
same,"viability, T/C","second compound 1 µM, first compound 10 µM",74.8%
same,"viability, T/C",[17],65.4%
same,"viability, T/C",[18],59.8%
same,"viability, T/C",[19],60.6%
same,"viability, T/C",[20],67.2%
same,"viability, T/C","second compound 3.16 µM, first compound 3.16 µM",62.8%
same,"viability, T/C","second compound 3.16 µM, first compound 10 µM",54.9%
same,"viability, T/C",[21],54.8%
same,"viability, T/C",[22],48.4%
same,"viability, T/C",[23],50.3%
same,"viability, T/C",[24],51.8%
same,"viability, T/C","second compound 10 µM, first compound 3.16 µM",49.4%
same,"viability, T/C","second compound 10 µM, first compound 10 µM",48.2%
COc1c(OCCCN2CCOCC2)ccc2c3n(c(=NC(=O)c4cnc(N)nc4)nc12)CCN3 + Cc1c(S(C)(=O)=O)c(-c2cc(F)cc(N3CCN(c4ccc(NS(=O)(=O)c5ccc(NC(CCN6CCC(C(=O)OCCCP(=O)(O)O)CC6)CSc6ccccc6)c(S(=O)(=O)C(F)(F)F)c5)cc4)CC3)c2)c(-c2ccc(Cl)cc2)n1C(C)C,IC50,second compound 0.0316 µM,442 nM
same,IC50,second compound 0.1 µM,406 nM
same,IC50,second compound 0.316 µM,215 nM
same,IC50,second compound 1 µM,157 nM
same,IC50,second compound 3.16 µM,27 nM
same,IC50,second compound 10 µM,< 3.16 nM
same,"viability, T/C","second compound 0.0316 µM, first compound 0.00316 µM",95.3%
same,"viability, T/C","second compound 0.0316 µM, first compound 0.01 µM",91.8%
same,"viability, T/C",[1],83.6%
same,"viability, T/C",[2],64.6%
same,"viability, T/C",[3],57.8%
same,"viability, T/C",[4],38.4%
same,"viability, T/C","second compound 0.1 µM, first compound 0.00316 µM",94.4%
same,"viability, T/C","second compound 0.1 µM, first compound 0.01 µM",86%
same,"viability, T/C",[5],79.3%
same,"viability, T/C",[6],65.9%
same,"viability, T/C",[7],55.7%
same,"viability, T/C",[8],36.2%
same,"viability, T/C","second compound 0.316 µM, first compound 0.00316 µM",87.7%
same,"viability, T/C","second compound 0.316 µM, first compound 0.01 µM",92.6%
same,"viability, T/C",[9],69%
same,"viability, T/C",[10],57.5%
same,"viability, T/C",[11],49.7%
same,"viability, T/C",[12],34.1%
same,"viability, T/C","second compound 1 µM, first compound 0.00316 µM",78.9%
same,"viability, T/C","second compound 1 µM, first compound 0.01 µM",74.5%
same,"viability, T/C",[13],61.8%
same,"viability, T/C",[14],51.6%
same,"viability, T/C",[15],49.5%
same,"viability, T/C",[16],27.1%
same,"viability, T/C","second compound 3.16 µM, first compound 0.00316 µM",63.6%
same,"viability, T/C","second compound 3.16 µM, first compound 0.01 µM",58.8%
same,"viability, T/C",[17],46%
same,"viability, T/C",[18],41%
same,"viability, T/C",[19],33.6%
same,"viability, T/C",[20],21.5%
same,"viability, T/C","second compound 10 µM, first compound 0.00316 µM",48.1%
same,"viability, T/C","second compound 10 µM, first compound 0.01 µM",44.7%
same,"viability, T/C",[21],41.2%
same,"viability, T/C",[22],35.6%
same,"viability, T/C",[23],35.6%
same,"viability, T/C",[24],21.4%
